Measured values reported in patent US20230080054A1 (ILDONG PHARMACEUTICAL CO., LTD., priority 2021, published 2023).

Tested on: platelet-rich plasma (PRP)
Test: Recalcification time of rat platelet-rich plasma
Conditions: 30 μM, vs 2% DMSO control
Method: Example 5: Recalcification Time
1. Materials and Instruments
Isoflurane (Hana Pharm, cat. #9008), Isotonic Sodium Chloride Injection (Daihan Pharm, cat. #331), Citrate-dextrose solution (Sigma-Aldrich, cat. #C3821), Calcium chloride solution (Sigma-Aldrich, cat. #21115), 22G Syringe 10 mL (Koreavaccine), Dimethyl sulfoxide (Sigma-Aldrich, cat. #D5879), Apixaban (AK scientific, cat. #X1060), 96 Well Cell Culture Plates (SPL Life Sciences, cat. #30096), Synergy H4 Hybrid Microplate Reader (BioTek), Combi R515 Multi-purpose Centrifuge (Hanil Scientific), BS-06 Shaking & Heating Baths (JEIO TECH), and PST-60HL-4 Plate Shaker-Thermostat (Bio-San)
Seven-week-old male SD Rat (ORIENT BIO.) were maintained under controlled conditions of temperature (22±2° C.) and 12-h light/12-h dark cycle. Rats were housed in the pathogen-free facility of the Laboratory Animal Research Center in Ildong Pharmaceutical Co. Ltd. All procedures on animals were conducted in accordance with the relevant national regulatory guidelines and individual experiments approved by the Ildong Pharmaceutical Co. Ltd., Institutional Animal Care and Use Committee (IACUC) (approval No.: A2106-3, 2108-4).
The ability of test compounds to interfere with plasma coagulation, in the presence of platelets, was analyzing by measuring the recalcification time of rat plasma. The blood of animals was collected into 15 mL tubes containing Citrate-dextrose solution (9:1 v/v) before performing the assays. For recalcification time, platelet-rich plasma (PRP) samples were obtained by centrifugation at 360×g for 10 minutes. And the PRP were preincubated for 5 minutes (37° C.). In a 96 well microplate, test compounds (2 μL) were treated in 98 μL of platelet rich plasma. After mixing with a pipette, it was incubated at 37° C. for 15 minutes. The reaction was started by addition of 200 μL of pre-warmed CaCl2) (16 mM). Immediately, put the microplate in a microplate reader and the signals were measured by the following steps.
(1) 405 nm wavelength absorbance signals were recorded in every 10 seconds at 37° C.
(2) Basal absorbance signals were recorded for 0 second.
The signal variance of each of the test compounds was obtained by the following step.
(1) Background signals (t=O) were subtracted from recording values, and the resulting values were converted to change values. The values at 0 second were set to be zero.
The retardation time of test compound were calculated by the following formula:
Retardation time (sec)=[log EC50 (test sample)−log EC50 (DMSO control)]
As described above, a DMSO control group is a group to which 2% DMSO was treated.
The assay result is shown in Table 5, where compounds (30 μM) having less than 20 seconds of retardation time are marked by ‘C’; the compounds (30 μM) having retardation time of 20 seconds or more to less than 50 seconds are marked by ‘B’; and the compounds (30 μM) having retardation time of 50 seconds or more are marked by ‘A’.

SMILES | Inhibition Level (retardation time, recalcification time)
O=C(Nc1ccc(Cl)c(Cl)c1)c1cccc(Nc2ncc(-c3cccc(F)c3)cn2)c1 [Compound 118, N-(3,4-dichlorophenyl)-3-{[5-(3-fluorophenyl)pyrimidin-2-yl]amino}benzamide] | C (compounds (30 μM) having less than 20 seconds of retardation time)
O=C(Nc1cccc(F)c1)c1cccc(Nc2ccc(-c3cccc(F)c3)cn2)c1 [Compound 122, N-(3-fluorophenyl)-3-{[5-(3-fluorophenyl)pyridin-2-yl]amino}benzamide] | B (the compounds (30 μM) having retardation time of 20 seconds or more to less than 50 seconds)
O=C(NCCc1cccc(C(F)(F)F)c1)c1cccc(Nc2ncc(-c3cccc(F)c3)cn2)c1 [Compound 79, 3-{[5-(3-fluorophenyl)pyrimidin-2-yl]amino}-N-{2-[3-(trifluoromethyl)phenyl]ethyl}benzamide] | C (compounds (30 μM) having less than 20 seconds of retardation time)
O=C(N[C@@H]1C[C@H]1c1ccccc1)c1cccc(Nc2ccc(-c3cccc(F)c3)cn2)c1 [Compound 123, 3-{[5-(3-fluorophenyl)pyridin-2-yl]amino}-N-[(1R,2S)-2-phenylcyclopropyl]benzamide] | B (the compounds (30 μM) having retardation time of 20 seconds or more to less than 50 seconds)
O=C(N[C@@H]1C[C@H]1c1ccccc1)c1cccc(Nc2ncc(-c3cccc(F)c3)cn2)c1 [Compound 119, 3-{[5-(3-fluorophenyl)pyrimidin-2-yl]amino}-N-[(1R,2S)-2-phenylcyclopropyl]benzamide] | C (compounds (30 μM) having less than 20 seconds of retardation time)
O=C(N[C@@H]1C[C@H]1c1ccccc1)c1cccc(Nc2ccc(-c3ccccc3)nn2)c1 [Compound 68, N-[(1R,2S)-2-phenylcyclopropyl]-3-[(6-phenylpyridazin-3-yl)amino]benzamide] | A (the compounds (30 μM) having retardation time of 50 seconds or more)
O=C(NCCC1CCCCC1)c1cccc(Nc2ncc(-c3cccc(F)c3)cn2)c1 [Compound 80, N-(2-cyclohexylethyl)-3-{[5-(3-fluorophenyl)pyrimidin-2-yl]amino}benzamide] | C (compounds (30 μM) having less than 20 seconds of retardation time)
